The target in test [1] is T1, TBK1 (Homo sapiens (Human), UniProt Q9UHD2). Put plainly: In vitro TBK1 degradation assay, Panc02.13 cells (compounds 3-33), immunoblot. Format: cell-based. The note with it: for DC50: read-out: DC50 (concentration at which 50% degradation is observed). The procedure: (§1) In vitro degradation assay protocol for compounds 3-33: Panc02.13 cells were purchased from ATCC and cultured in RPMI-1640 (Gibco), supplemented with 15% FBS (ATCC) and 10 Units/mL human recombinant insulin (Gibco). PROTAC treatments were carried out in 12-well plates for 16 h. TLR3 agonist Poly I:C (Invivogen; tlr1-pic) was added for the final 3 h. Cells were harvested, and lysed in RIPA buffer (50 mM Tris pH8, 150 mM NaCl, 1% Tx-100, 0.1% SDS, 0.5% Sodium Deoxycholate) supplemented with protease and phosphatase inhibitors. Lysates were clarified at 16,000 g for 10 minutes, and supernatants were separated by SDS-PAGE. Immunoblotting was performed using standard protocols. The antibodies used were TBK1 (Cell Signaling#3504), pIRF3 (abcam#ab76493), and GAPDH (Cell Signaling#5174).
T1 sequence (Q9UHD2 whole entry): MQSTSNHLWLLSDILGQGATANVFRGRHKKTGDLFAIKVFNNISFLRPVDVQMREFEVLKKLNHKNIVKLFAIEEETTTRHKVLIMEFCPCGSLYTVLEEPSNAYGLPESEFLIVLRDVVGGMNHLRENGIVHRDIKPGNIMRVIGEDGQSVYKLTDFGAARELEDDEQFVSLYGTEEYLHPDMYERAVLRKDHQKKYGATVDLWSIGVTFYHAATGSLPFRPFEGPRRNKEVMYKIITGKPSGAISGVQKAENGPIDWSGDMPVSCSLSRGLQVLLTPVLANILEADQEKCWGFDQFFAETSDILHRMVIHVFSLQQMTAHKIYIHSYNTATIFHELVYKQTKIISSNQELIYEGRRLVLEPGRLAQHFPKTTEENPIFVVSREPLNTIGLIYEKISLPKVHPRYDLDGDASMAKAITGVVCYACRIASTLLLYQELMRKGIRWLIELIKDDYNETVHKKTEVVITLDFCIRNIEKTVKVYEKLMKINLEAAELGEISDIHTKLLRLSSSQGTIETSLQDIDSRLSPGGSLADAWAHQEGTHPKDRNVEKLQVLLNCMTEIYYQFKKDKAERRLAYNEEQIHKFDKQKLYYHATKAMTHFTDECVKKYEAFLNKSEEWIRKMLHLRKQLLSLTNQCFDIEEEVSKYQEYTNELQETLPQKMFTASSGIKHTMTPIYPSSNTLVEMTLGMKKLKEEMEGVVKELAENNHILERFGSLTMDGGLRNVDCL
In general terms: In western blotting, separated proteins are transferred to a membrane and probed.

In test [2] the target is Von Hippel-Lindau (VHL) E3 ligase (Homo sapiens (Human), UniProt P40337). The test can be described thus: VHL binding, FP assay. The note with it: affinity of the VHL ligand component with side chain R2.
Sequence of Von Hippel-Lindau (VHL) E3 ligase (P40337 whole entry, looked up): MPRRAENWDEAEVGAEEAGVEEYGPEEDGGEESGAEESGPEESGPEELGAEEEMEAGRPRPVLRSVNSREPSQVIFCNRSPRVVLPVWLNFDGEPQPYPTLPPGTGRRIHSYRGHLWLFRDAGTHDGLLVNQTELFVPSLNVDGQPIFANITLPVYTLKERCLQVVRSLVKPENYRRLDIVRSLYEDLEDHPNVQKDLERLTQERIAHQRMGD
Sequence of Von Hippel-Lindau (VHL) E3 ligase (Q15370 whole entry partner, looked up): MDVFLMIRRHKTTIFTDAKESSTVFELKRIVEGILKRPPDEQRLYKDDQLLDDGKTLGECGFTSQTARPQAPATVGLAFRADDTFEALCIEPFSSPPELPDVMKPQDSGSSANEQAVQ
Sequence of Von Hippel-Lindau (VHL) E3 ligase (Q15369 whole entry partner, looked up): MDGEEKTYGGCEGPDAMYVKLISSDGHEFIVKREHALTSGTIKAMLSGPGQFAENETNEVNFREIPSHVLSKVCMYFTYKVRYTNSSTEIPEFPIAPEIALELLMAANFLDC
The target of test [3] is T1, TBK1. Put plainly: TBK1 binding affinity (Kd).
Another test relates to pIRF3. Put plainly: Inhibition of TBK1 downstream marker pIRF3 in cells. Format: cell-based. How it is done:
as §1

Test [4] deals with KRAS mutant cell lines H23, A549 and H1792, and KRAS wild type cell line H2110. The test can be described thus: Proliferation of KRAS mutant and wild type cell lines. The following applies: 72 hour treatment. The test is classed as cell-based.
Test [5] has as its target T2, IKKε (Homo sapiens (Human), UniProt Q14164). Put plainly: IKKε binding affinity (Kd).
Test [6] addresses T2, IKKε. Put plainly: IKKε degradation in cells. Format: cell-based.
The target in test [7] is T1, TBK1. Put plainly: TBK1 degradation in KRAS mutant and wild type cell lines. The note with it: 72 hour treatment; H23, A549, H1792 (KRAS mutant), H2110 (KRAS wild type). The test is classed as cell-based.
Where [8] appears, read: TBK1 degradation, Panc02.13 cells, 16 h, mean of ≥ 2 determinations.

This note sets out measurements from patent publication US10946017B2, “Tank-binding kinase-1 PROTACs and associated methods of use” (Arvinas Operations, Inc., priority 2015, dated 2021).

SMILES strings stand for the structures. “Also recorded” adds a separate entry of the source. Where two headings read alike, the source gives them in different places.

T2 sequence (Q14164 whole entry): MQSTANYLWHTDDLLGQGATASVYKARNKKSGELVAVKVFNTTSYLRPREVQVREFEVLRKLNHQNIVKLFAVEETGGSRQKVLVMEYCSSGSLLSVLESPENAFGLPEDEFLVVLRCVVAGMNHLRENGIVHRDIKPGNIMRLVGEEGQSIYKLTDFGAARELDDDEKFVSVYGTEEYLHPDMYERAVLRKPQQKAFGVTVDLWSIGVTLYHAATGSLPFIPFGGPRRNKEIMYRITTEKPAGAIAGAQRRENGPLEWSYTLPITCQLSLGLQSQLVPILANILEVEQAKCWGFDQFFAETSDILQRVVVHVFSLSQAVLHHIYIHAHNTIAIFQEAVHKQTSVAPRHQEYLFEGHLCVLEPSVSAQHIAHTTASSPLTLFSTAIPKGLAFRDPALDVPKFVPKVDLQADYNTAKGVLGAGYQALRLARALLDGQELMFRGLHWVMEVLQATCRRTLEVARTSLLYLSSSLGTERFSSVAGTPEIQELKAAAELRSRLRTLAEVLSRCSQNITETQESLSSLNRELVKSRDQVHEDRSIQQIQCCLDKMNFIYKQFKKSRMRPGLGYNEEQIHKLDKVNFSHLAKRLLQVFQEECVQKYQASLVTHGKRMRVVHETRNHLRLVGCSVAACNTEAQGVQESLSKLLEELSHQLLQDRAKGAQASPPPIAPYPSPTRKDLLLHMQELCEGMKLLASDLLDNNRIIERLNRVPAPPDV

For the compound `Cc1ncsc1-c1ccc(CNC(=O)[C@@H]2C[C@@H](O)CN2C(=O)CNC(=O)COCCCOCCCCOCCCOc2ccc(Nc3ncc(Br)c(NCCCN(C)C(=O)C4CCC4)n3)cc2)cc1` [Compound 29], on TBK1 [1] (setting [8]), the “Dmax (maximal degradation observed)” value was determined as 0% and the DC50 was over 1000 nM. Further, in test [2], the IC50 (in general, the point on the concentration scale where inhibition reaches its midpoint) is 106000 nM.
With `Cc1ncsc1-c1ccc(CNC(=O)[C@@H]2C[C@@H](O)CN2C(=O)[C@@H](NC(=O)COCCCOCCCCOCCCOc2ccc(Nc3ncc(C4CCC4)c(NCCCN(C)C(=O)C4CCC4)n3)cc2)C(C)(C)C)cc1` [Compound 22], at TBK1 [1] (setting [8]), the “Dmax (maximal degradation observed)” value amounted to 70% and the DC50 stood at 544 nM. At TBK1 [3], the Kd (in general, the concentration at which binding is half-saturated) amounted to 1040 ± 165 nM. At TBK1 [3] (rounded value), the Kd amounted to 1000 nM.
Take `Cc1ncsc1-c1ccc(CNC(=O)[C@@H]2C[C@@H](O)CN2C(=O)[C@@H](NC(=O)COCCCOCCCCOCCCOc2ccc(Nc3ncc(Br)c(NCCCN(C)C(=O)C4CCC4)n3)cc2)C(C)C)cc1` [Compound 33]: at TBK1 [1] (setting [8]), the “Dmax (maximal degradation observed)” value turned out to be 88% and the DC50 was determined as 44 nM. Besides, in test [2], the IC50 is 1450 nM.
For the compound `Cc1ncsc1-c1ccc(CNC(=O)[C@@H]2C[C@@H](O)CN2C(=O)[C@@H](NC(=O)COCCCOCCCCOCCCOc2ccc(Nc3ncc(Br)c(NCCCN(C)C(=O)C4CCC4)n3)cc2)C(C)(C)C)cc1` [Compound 11, (2S,4R)-1-((S)-18-(4-((5-Bromo-4-((3-(N-methylcyclobutanecarboxamido)-propyl)amino)pyrimidin-2-yl)amino)phenoxy)-2-(tert-butyl)-4-oxo-6,10,15-trioxa-3-azaoctadecan-1-oyl)-4-hydroxy-N-(4-(4-methylthiazol-5-yl)benzyl)pyrrolidine-2-carboxamide], the DC50 at TBK1 [1] (setting [8]) amounted to 12 nM. At TBK1 [1] (TBK1 degradation, Panc02.13 cells, 16 h, mean of ≥ 2 determinations, read-out: Dmax (maximal degradation observed)), the Dmax – broadly, the largest share of the target that was removed – stood at 96%. The “TBK1 degradation with excess VHL ligand 2 added” value at TBK1 [1] (excess VHL ligand 2 as competitor) is recorded as “abrogated TBK1's degradation”. Besides, the “TBK1 degradation (in words)” value on TBK1 [1] (listed as PROTAC 11) was “Maximal efficacy; also recorded: effects degradation of TBK1”. Moreover, the “TBK1 degradation after pre-treatment with proteasome inhibitor carfilzomib” value at TBK1 [1] (pre-treatment with carfilzomib, listed as PROTAC 11) is listed as “markedly reduced the extent of TBK1 degradation; also recorded: abrogated”. Moreover, the Kd worked out at 4.6 ± 1.1 nM on TBK1 [3] and 70 nM on IKKε [5]. Besides, the IC50 in test [2] was 800 nM. Further, the “intracellular TBK1 binding indicated by inhibition of pIRF3” value with pIRF3 is “competent intracellular TBK1 binding”. The “effect on proliferation of KRAS mutant versus wild type cells” value in test [4] was “no differential effect on the proliferation”. For the same compound, the IKKε degradation entry at IKKε [6] is on record as “negligible degradation”. Moreover, the “degradation selectivity TBK1 over IKKε” value on IKKε [6] is listed as “selectively degrades TBK1 over IKKε”. Also, the “TBK1 degradation in KRAS mutant and wild type cells” value at TBK1 [7] is listed as “near complete degradation of TBK1”.
In the case of `CCC[C@H](NC(=O)COCCCOCCCCOCCCOc1ccc(Nc2ncc(Br)c(NCCCN(C)C(=O)C3CCC3)n2)cc1)C(=O)N1C[C@H](O)C[C@H]1C(=O)NCc1ccc(-c2scnc2C)cc1` [Compound 32], at TBK1 [1] (setting [8]), the “Dmax (maximal degradation observed)” value is 75% and the DC50 was 288 nM. The compound further returned an IC50 in test [2] of 6200 nM.
With `Cc1ncsc1-c1ccc(CNC(=O)[C@@H]2C[C@@H](O)CN2C(=O)[C@H](C)NC(=O)COCCCOCCCCOCCCOc2ccc(Nc3ncc(Br)c(NCCCN(C)C(=O)C4CCC4)n3)cc2)cc1` [Compound 30], at TBK1 [1] (setting [8]), the “Dmax (maximal degradation observed)” value was 34% and the DC50 is over 1000 nM. Also, in test [2], the IC50 came out at 23600 nM.
`CC[C@H](NC(=O)COCCCOCCCCOCCCOc1ccc(Nc2ncc(Br)c(NCCCN(C)C(=O)C3CCC3)n2)cc1)C(=O)N1C[C@H](O)C[C@H]1C(=O)NCc1ccc(-c2scnc2C)cc1` [Compound 31]: on TBK1 [1] (setting [8]), the “Dmax (maximal degradation observed)” value stood at 71% and the DC50 came to 864 nM. The “Dmax (maximal degradation observed)” value on TBK1 [1] (TBK1 degradation, Panc02.13 cells, 16 h, mean of ≥ 2 determinations, listed as PROTAC 31) is over 70%. In test [2], this compound registered an IC50 of 70400 nM.
